{"source": "patent US11999769B2", "about": "“Method for isolating and purifying bacteriocin against drug-resistant Staphylococcus aureus” (Zhejiang Gongshang University, priority 2022, dated 2024)", "tested_on": "S. aureus D48", "assay": "effect on membrane potential difference, DiSC2(5) fluorescent probe", "format": "cell-based, Staphylococcus aureus", "conditions": "bacteriocin 1×MIC; Triton X-100 5% solution as positive control; scanning time 15 min", "experimental": "S. aureus D48 cells were prepared by the same method as that in Example 3, washed with a 5 mM fluorescent leakage buffer and resuspended to 5 mL to obtain a bacterial suspension. A fluorescent probe DiSC2(5) was set to have an excitation wavelength of 650 nm and an emission wavelength of 670 nm. The scanning interval was set as Ex slit: 5 nm, Em slit: 5 nm, and the scanning time was 15 min. 2 mL of the fluorescent leakage buffer, 20 μL of the bacterial suspension, and 3 μL of 0.1 mM probe DiSC2(5) were added to a fluorescence cuvette, and mixed uniformly for detection. After the fluorescence response value became stable, the L. rhamnosus ZFM216 bacteriocin solution with a final concentration of 1×MIC was quickly added in the experimental group, and the same volume of fluorescence leakage buffer and 5% Triton X-100 solution were added to the control groups respectively.\nNote: The preparation method of the fluorescent leakage buffer is: 0.7455 g of potassium chloride and 0.2463 g of a magnesium sulfate heptahydrate solution are accurately weighed, 22.5 mL of a 20% glucose solution and 10 mL of a phosphate buffer solution are measured, the volume is diluted to 100 mL with ultrapure water, the pH is adjusted to 7, and the prepared fluorescent leakage buffer is stored at 4° C. for later use.", "data": [{"substance": "Triton X-100 [TritonX-100]", "values": [{"measurement": "fluorescence intensity of S. aureus D48 bacterial suspension (DiSC2(5))", "value": "rapidly increased to the highest value"}]}]}
